Laboratory results from patent publication US20150174137A1, “COMPOSITIONS FOR TREATING MICROBIAL INFECTIONS” (ALCON RESEARCH, LTD., priority 2010, published 2015).
In brackets after ≈: the same amount, converted by molar mass.

Legend:
[1] = Solubility of finafloxacin in three magnesium chloride-containing solutions at various pH; format: physicochemical; conditions: for solubility: aqueous with cosolvent or surfactant or cyclodextrin
[2] = Solubility studies of finafloxacin monohydrochloride in aqueous solution with various salts; format: physicochemical
Excerpt: TABLE 1 below summarizes the results of solubility studies using finafloxacin monohydrochloride in aqueous solution with various salts at different concentrations. […] In particular, magnesium salts generated clear, colorless solutions at slightly acidic, physiologically-compatible pH ranges.

[3] = Solubility studies of fluoroquinolones (0.3%) with ZnCl2, MgCl2 or CaCl2; conditions: quinolone 0.3%
[4] = pH 7.4 in 0.1M phosphate buffer; cited from earlier work
[5] = TABLE 3A magnesium chloride-containing solution, final pH 5.73
[6] = TABLE 3A magnesium chloride-containing solution, final pH 6.23
[7] = TABLE 3A magnesium chloride-containing solution, final pH 6.58
[8] = TABLE 3A magnesium chloride-containing solution, final pH 7.12
[9] = TABLE 3A magnesium chloride-containing solution, final pH 7.55
[10] = TABLE 3B magnesium chloride-containing solution, pH 6.08
[11] = TABLE 3B magnesium chloride-containing solution, pH 6.15
[12] = TABLE 3B magnesium chloride-containing solution, pH 6.69
[13] = TABLE 3B magnesium chloride-containing solution, pH 7.29
[14] = TABLE 3B magnesium chloride-containing solution, pH 7.54
[15] = TABLE 3C magnesium chloride-containing solution, pH 5.22
[16] = TABLE 3C magnesium chloride-containing solution, pH 6.19
[17] = TABLE 3C magnesium chloride-containing solution, pH 6.65
[18] = TABLE 3C magnesium chloride-containing solution, pH 7.16
[19] = TABLE 3C magnesium chloride-containing solution, pH 7.67
[20] = 0.05% MgCl2 5.27 mM + 0.05% ZnCl2 3.67 mM
[21] = 0.05% MgCl2 5.27 mM + 0.1% ZnCl2 7.34 mM
[22] = 0.1% MgCl2 10.5 mM + 0.05% ZnCl2 3.67 mM
[23] = 0.1% MgCl2 10.5 mM + 0.1% ZnCl2 7.3 mM
[24] = AlCl3 13.5 mM, Conc. (%) 0.180%
[25] = CaGluconate 17.5 mM, Conc. (%) 0.75%
[26] = Mg(CH3COO)2 1.3 mM, Conc. (%) 0.019%
[27] = Mg(CH3COO)2 6.7 mM, Conc. (%) 0.095%
[28] = Mg(CH3COO)2 13.5 mM, Conc. (%) 0.19%
[29] = MgCl2 2.45 mM, Conc. (%) 0.023%
[30] = ZnCl2 13.5 mM, Conc. (%) 0.184%

Cl.N#Cc1c(N2C[C@@H]3NCCO[C@H]3C2)c(F)cc2c(=O)c(C(=O)O)cn(C3CC3)c12 [Finafloxacin HCl, finafloxacin monohydrochloride]
Solubility of finafloxacin [1, 5]: 0.404 w/v % | Solubility of finafloxacin [1, 6]: 0.727 w/v % | Solubility of finafloxacin [1, 7]: 0.638 w/v % | Solubility of finafloxacin [1, 8]: 0.944 w/v % | Solubility of finafloxacin [1, 9]: 1.244 w/v % | Solubility of finafloxacin [1, 10]: 0.316 w/v % | Solubility of finafloxacin [1, 11]: 0.355 w/v % | Solubility of finafloxacin [1, 12]: 0.628 w/v % | Solubility of finafloxacin [1, 13]: 0.915 w/v % | Solubility of finafloxacin [1, 14]: 1.140 w/v % | Solubility of finafloxacin [1, 15]: 0.130 w/v % | Solubility of finafloxacin [1, 16]: 0.216 w/v % | Solubility of finafloxacin [1, 17]: 0.346 w/v % | Solubility of finafloxacin [1, 18]: 0.501 w/v % | Solubility of finafloxacin [1, 19]: 0.921 w/v %

N#Cc1c(N2C[C@@H]3NCCO[C@H]3C2)c(F)cc2c(=O)c(C(=O)O)cn(C3CC3)c12 [Finafloxacin, 8-cyano-1-cyclopropyl-6-fluoro-7-[(4aS,7aS)-hexahydropyrrolo[3,4-b]-1,4-oxazin-6(2H)-yl]-1,4-dihydro-4-oxo-3-quinoline carboxylic acid]
solubility [1, 5]: 3700 µg/mL (≈ 9.29 mM) | solubility [1, 6]: 6660 µg/mL (≈ 16.7 mM) | solubility [1, 7]: 5850 µg/mL (≈ 14.7 mM) | solubility [1, 8]: 8650 µg/mL (≈ 21.7 mM) | solubility [1, 9]: 11400 µg/mL (≈ 28.6 mM) | solubility [1, 10]: 2900 µg/mL (≈ 7.28 mM) | solubility [1, 11]: 3250 µg/mL (≈ 8.16 mM) | solubility [1, 12]: 5760 µg/mL (≈ 14.5 mM) | solubility [1, 13]: 8390 µg/mL (≈ 21.1 mM) | solubility [1, 14]: 10400 µg/mL (≈ 26.2 mM) | solubility [1, 15]: 1190 µg/mL (≈ 2.99 mM) | solubility [1, 16]: 1980 µg/mL (≈ 4.97 mM) | solubility [1, 17]: 3170 µg/mL (≈ 7.96 mM) | solubility [1, 18]: 4590 µg/mL (≈ 11.5 mM) | solubility [1, 19]: 8440 µg/mL (≈ 21.2 mM) | C.C.S. (clear colorless solution) pH Range [2, 20]: 4.86-5.87 | Observation [2, 20]: C.C.S | C.C.S. (clear colorless solution) pH Range [2, 21]: 4.62-5.86 | Observation [2, 21]: C.C.S | C.C.S. (clear colorless solution) pH Range [2, 22]: 5.01-5.75 | Observation [2, 22]: C.C.S | C.C.S. (clear colorless solution) pH Range [2, 23]: 4.68-5.88 | Observation [2, 23]: C.C.S | C.C.S. (clear colorless solution) pH Range ([2]; AlCl3 1.3 mM, Conc. (%) 0.018%): Not Formed | Observation ([2]; AlCl3 1.3 mM, Conc. (%) 0.018%): Suspension at pH 3.7-7.4 | C.C.S. (clear colorless solution) pH Range ([2]; AlCl3 6.7 mM, Conc. (%) 0.09%): 2.83-7.46 | Observation ([2]; AlCl3 6.7 mM, Conc. (%) 0.09%): Pale-yellow→at pH 7.58 | C.C.S. (clear colorless solution) pH Range [2, 24]: 2.50-7.24 | Observation [2, 24]: Pale-yellow → at pH 7.41 | C.C.S. (clear colorless solution) pH Range ([2]; CaCl2 1.3 mM, Conc. (%) 0.015%): Not Formed | Observation ([2]; CaCl2 1.3 mM, Conc. (%) 0.015%): Suspension at pH 3.7 | C.C.S. (clear colorless solution) pH Range ([2]; CaCl2 6.7 mM, Conc. (%) 0.075%): Not Formed | Observation ([2]; CaCl2 6.7 mM, Conc. (%) 0.075%): Suspension at pH 3.7 | C.C.S. (clear colorless solution) pH Range ([2]; CaCl2 13.5 mM, Conc. (%) 0.15%): 6.45 | Observation ([2]; CaCl2 13.5 mM, Conc. (%) 0.15%): C.C.S | C.C.S. (clear colorless solution) pH Range ([2]; CaCl2 20.0 mM, Conc. (%) 0.22%): 6.29-6.39 | Observation ([2]; CaCl2 20.0 mM, Conc. (%) 0.22%): C.C.S | C.C.S. (clear colorless solution) pH Range [2, 25]: Not Formed | Observation [2, 25]: Suspension at pH 3.7 | C.C.S. (clear colorless solution) pH Range ([2]; CuCl2 1.3 mM, Conc. (%) 0.018%): Not Formed | Observation ([2]; CuCl2 1.3 mM, Conc. (%) 0.018%): Suspension at pH 3.7-7.4 | C.C.S. (clear colorless solution) pH Range ([2]; CuCl2 6.7 mM, Conc. (%) 0.09%): 5.14-7.26 | Observation ([2]; CuCl2 6.7 mM, Conc. (%) 0.09%): Light blue coloration | C.C.S. (clear colorless solution) pH Range ([2]; CuCl2 13.5 mM, Conc. (%) 0.18%): 5.77-6.11 | Observation ([2]; CuCl2 13.5 mM, Conc. (%) 0.18%): Light blue coloration | C.C.S. (clear colorless solution) pH Range ([2]; KCl 93 mM, Conc. (%) 0.7%): Not Formed | Observation ([2]; KCl 93 mM, Conc. (%) 0.7%): Suspension at pH 3.7-7.4 | C.C.S. (clear colorless solution) pH Range [2, 26]: Not Formed | Observation [2, 26]: Suspension at pH 3.7-7.4 | C.C.S. (clear colorless solution) pH Range [2, 27]: 6.05-7.57 | Observation [2, 27]: C.C.S. | C.C.S. (clear colorless solution) pH Range [2, 28]: 5.21-8.51 | Observation [2, 28]: C.C.S. | C.C.S. (clear colorless solution) pH Range ([2]; MgCl2 1.3 mM, Conc. (%) 0.012%): Not Formed | Observation ([2]; MgCl2 1.3 mM, Conc. (%) 0.012%): Suspension at pH 3.7-7.4 | C.C.S. (clear colorless solution) pH Range [2, 29]: Not Formed | Observation [2, 29]: Suspension at pH 3.7-7.4 | C.C.S. (clear colorless solution) pH Range ([2]; MgCl2 4.91 mM, Conc. (%) […]): 6.68-7.65 | Observation ([2]; MgCl2 4.91 mM, Conc. (%) […]): C.C.S | C.C.S. (clear colorless solution) pH Range ([2]; MgCl2 6.7 mM, Conc. (%) 0.064%): 6.00-9.84 | Observation ([2]; MgCl2 6.7 mM, Conc. (%) 0.064%): C.C.S | C.C.S. (clear colorless solution) pH Range ([2]; MgCl2 13.5 mM, Conc. (%) 0.12%): 5.26-9.61 | Observation ([2]; MgCl2 13.5 mM, Conc. (%) 0.12%): C.C.S | C.C.S. (clear colorless solution) pH Range ([2]; MgSO4 1.3 mM, Conc. (%) 0.016%): Not Formed | Observation ([2]; MgSO4 1.3 mM, Conc. (%) 0.016%): Suspension at pH 3.7-7.4 | C.C.S. (clear colorless solution) pH Range ([2]; MgSO4 6.7 mM, Conc. (%) 0.08%): 6.36-9.23 | Observation ([2]; MgSO4 6.7 mM, Conc. (%) 0.08%): C.C.S | C.C.S. (clear colorless solution) pH Range ([2]; MgSO4 13.5 mM, Conc. (%) 0.16%): 6.29-7.44 | Observation ([2]; MgSO4 13.5 mM, Conc. (%) 0.16%): C.C.S | C.C.S. (clear colorless solution) pH Range ([2]; NaCl 13.5 mM, Conc. (%) 0.076%): Not Formed | Observation ([2]; NaCl 13.5 mM, Conc. (%) 0.076%): Suspension at pH 3.7-7.4 | C.C.S. (clear colorless solution) pH Range ([2]; NaCl 27 mM, Conc. (%) 0.15%): Not Formed | Observation ([2]; NaCl 27 mM, Conc. (%) 0.15%): Suspension at pH 3.7-7.4 | C.C.S. (clear colorless solution) pH Range ([2]; NaCl 120 mM, Conc. (%) 0.79%): Not Formed | Observation ([2]; NaCl 120 mM, Conc. (%) 0.79%): Suspension at pH 3.7-7.4 | C.C.S. (clear colorless solution) pH Range ([2]; NaSO4 21.3 mM, Conc. (%) 0.3%): Not Formed | Observation ([2]; NaSO4 21.3 mM, Conc. (%) 0.3%): Suspension at pH 3.7-7.4 | C.C.S. (clear colorless solution) pH Range ([2]; ZnCl2 1.3 mM, Conc. (%) 0.018%): Not Formed | Observation ([2]; ZnCl2 1.3 mM, Conc. (%) 0.018%): Suspension at pH 3.7-7.4 | C.C.S. (clear colorless solution) pH Range ([2]; ZnCl2 6.7 mM, Conc. (%) 0.09%): 4.90-5.47 | Observation ([2]; ZnCl2 6.7 mM, Conc. (%) 0.09%): C.C.S | C.C.S. (clear colorless solution) pH Range [2, 30]: 4.50-5.55 | Observation [2, 30]: C.C.S | C.C.S. (clear colorless solution) pH Range ([2]; ZnCl2 20.0 mM, Conc. (%) 0.27%): 5.06-5.87 | Observation ([2]; ZnCl2 20.0 mM, Conc. (%) 0.27%): C.C.S | C.C.S. (clear colorless solution) pH Range ([2]; ZnSO4 13.5 mM, Conc. (%) 0.22%): 5.65 | Observation ([2]; ZnSO4 13.5 mM, Conc. (%) 0.22%): C.C.S

COc1c(N2CCNC(C)C2)c(F)cc2c(=O)c(C(=O)O)cn(C3CC3)c12 (stereo not shown) [GATIFLOXACIN, gatifloxacin]
C.C.S. (clear colorless solution) pH Range ([3]; CaCl2 10.0 mM, Conc. (w/v %) 0.08%): 7.31-7.55 | C.C.S. (clear colorless solution) pH Range ([3]; MgCl2 10.0 mM, Conc. (w/v %) 0.09%): 6.97-7.52 | C.C.S. (clear colorless solution) pH Range ([3]; ZnCl2 10.0 mM, Conc. (w/v %) 0.13%): 6.61-7.31 | literature-reported aqueous solubility [4]: 0.21 w/v %
